One molecule from patent publication US20110269838A1, “NOVEL PROCESSES AND PURE POLYMORPHS” (priority 2008, published 2011) can be followed below.

A short description of the series: Polymorphic stability on storage. The settings on record: kept at 40° C.±2° C. and relative humidity 75%±5% for 6 months; samples prepared in examples 1 to 5. The format is physicochemical.

`O=C(CCCCCCC(=O)Nc1ccccc1)NO` [crystalline vorinostat form I, N-hydroxy-N′-phenyl-octanediamide]: the “polymorphic stability (conversion over time to other polymorphs)” value is given as “no conversion over time to other polymorphs”.
